Measurements as given in ChEMBL document CHEMBL1201862, “PubChem BioAssay data set” (2004).
Values joined by “and” are separate entries in the source; they are usually repeats but may differ in a detail not shown here. Equal entries are not always repeated.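 Growth conditions: 96-well plates. Treatment: test compound, 48 hours, 5 concentrations. Analysis: linear interpolation between bracketing concentrations; unreached endpoints set to highest concentration. Here, GI50 denotes the concentration required for 50% inhibition of growth.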 Active and inactive are the calls of the source. Cut-off read from the data, not from the text of the source: active = GI50 up to about 1.1 µM and inactive = higher. Residues, ends and D or L forms follow the SMILES beside them. *: point of attachment. Boc = CC(C)(C)OC(=O)*; Bn = c1ccc(C*)cc1

Tests used:
Assay in all cases: DTP human tumour cell line panel, 48 h
HOP-62 = tested on: HOP-62
OVCAR-8 = tested on: OVCAR-8
NCI/ADR-RES = tested on: NCI/ADR-RES
M14 = tested on: M14
SR = tested on: SR
UO-31 = tested on: UO-31
NCI-H23 = tested on: NCI-H23
BT-549 = tested on: BT-549
LOX IMVI = tested on: LOX IMVI
UACC-62 = tested on: UACC-62
KM12 = tested on: KM12
HCT-116 = tested on: HCT-116
SK-MEL-28 = tested on: SK-MEL-28
TK-10 = tested on: TK-10
786-0 = tested on: 786-0
HT-29 = tested on: HT-29
K562 = tested on: K562
DU-145 = tested on: DU-145
RPMI-8226 = tested on: RPMI-8226
MDA-MB-231 = tested on: MDA-MB-231
U-251 = tested on: U-251
SNB-19 = tested on: SNB-19
HCT-15 = tested on: HCT-15
MOLT-4 = tested on: MOLT-4
SF-539 = tested on: SF-539
MDA-N = tested on: MDA-N
CCRF-CEM = tested on: CCRF-CEM
A549 = tested on: A549
COLO 205 = tested on: COLO 205
SW-620 = tested on: SW-620
SF-295 = tested on: SF-295
CAKI-1 = tested on: CAKI-1
NCI-H460 = tested on: NCI-H460
PC-3 = tested on: PC-3
OVCAR-3 = tested on: OVCAR-3
SK-MEL-2 = tested on: SK-MEL-2
Hs-578T = tested on: Hs-578T
IGROV-1 = tested on: IGROV-1
HL-60 = tested on: HL-60
A498 = tested on: A498
HOP-92 = tested on: HOP-92
MDA-MB-435 = tested on: MDA-MB-435
SN12C = tested on: SN12C
SNB-75 = tested on: SNB-75
ACHN = tested on: ACHN
OVCAR-4 = tested on: OVCAR-4
OVCAR-5 = tested on: OVCAR-5
UACC-257 = tested on: UACC-257
SF-268 = tested on: SF-268
SK-MEL-5 = tested on: SK-MEL-5
SK-OV-3 = tested on: SK-OV-3
Malme-3M = tested on: Malme-3M
NCI-H522 = tested on: NCI-H522
MCF7 = tested on: MCF7

In the case of `O=C(/C=C/c1ccccc1O)/C=C/c1ccccc1O`, the GI50 (HOP-62) is reported as 2.26 µM (inactive), the GI50 (OVCAR-8) is reported as 2.26 µM (inactive) and the GI50 (NCI/ADR-RES) is reported as 2140 nM (inactive). The GI50 (M14) was 1710 nM (inactive), the GI50 (SR) was 526 nM (active) and the GI50 (UO-31) was 1830 nM (inactive). For the same compound, the GI50 (NCI-H23) was 1.53 µM (inactive), the GI50 (BT-549) was 1.24 µM (inactive) and the GI50 (LOX IMVI) was 252 nM (active). For the same compound, the GI50 (UACC-62) was 1.67 µM (inactive), the GI50 (KM12) was 1.06 µM (active) and the GI50 (HCT-116) was 332 nM (active). For the same compound, the GI50 (SK-MEL-28) was 1810 nM (inactive), the GI50 (TK-10) was 1210 nM (inactive) and the GI50 (786-0) was 1.69 µM (inactive). For the same compound, the GI50 (HT-29) was 1.92 µM (inactive), the GI50 (K562) was 611 nM (active) and the GI50 (DU-145) was 1510 nM (inactive). The GI50 (RPMI-8226) was 190 nM (active), the GI50 (MDA-MB-231) was 2.48 µM (inactive) and the GI50 (U-251) was 482 nM (active). For the same compound, the GI50 (SNB-19) was 1.82 µM (inactive), the GI50 (HCT-15) was 1450 nM and the GI50 (MOLT-4) was 1.26 µM (inactive). The GI50 (SF-539) was 1550 nM (inactive), the GI50 (MDA-N) was 1.56 µM (inactive) and the GI50 (CCRF-CEM) was 305 nM (active). For the same compound, the GI50 (A549) was 2210 nM (inactive), the GI50 (COLO 205) was 1730 nM (inactive) and the GI50 (SW-620) was 966 nM (active). For the same compound, the GI50 (SF-295) was 1670 nM (inactive), the GI50 (CAKI-1) was 1.52 µM (inactive) and the GI50 (NCI-H460) was 1350 nM (inactive). For the same compound, the GI50 (PC-3) was 1740 nM (inactive), the GI50 (OVCAR-3) was 352 nM (active) and the GI50 (SK-MEL-2) was 9250 nM (inactive). The GI50 (Hs-578T) was 2.7 µM (inactive), the GI50 (IGROV-1) was 1.64 µM (inactive) and the GI50 (HL-60) was 2900 nM (inactive). The GI50 (A498) was 1820 nM (inactive), the GI50 (HOP-92) was 1.39 µM (inactive) and the GI50 (MDA-MB-435) was 1950 nM (inactive). For the same compound, the GI50 (SN12C) was 1720 nM (inactive), the GI50 (SNB-75) was 3900 nM (inactive) and the GI50 (ACHN) was 1800 nM (inactive). For the same compound, the GI50 (OVCAR-4) was 2.61 µM (inactive), the GI50 (OVCAR-5) was 1490 nM (inactive) and the GI50 (UACC-257) was 4430 nM (inactive). The GI50 (SF-268) was 254 nM (active), the GI50 (SK-MEL-5) was 1370 nM (inactive) and the GI50 (SK-OV-3) was 1.86 µM (inactive). For the same compound, the GI50 (Malme-3M) was 2110 nM (inactive).

In the case of `CNC(=O)C(CC(C)C)NC(=O)C(C)NC(=O)C(Cc1ccc(OCc2ccccc2)cc1)NC(=O)C(COCc1ccccc1)NC(=O)OC(C)(C)C` (stereo not given) (Boc-S(Bn)Y(Bn)AL-NHMe; configuration not given here), the GI50 (HOP-62) is reported as 20.5 µM (inactive) and 22.6 µM (inactive), the GI50 (OVCAR-8) is reported as 16.9 µM (inactive) and 17.1 µM (inactive) and the GI50 (NCI/ADR-RES) is reported as > 100000 nM (inactive). The GI50 (SR) was 15.1 µM (inactive) and 8.55 µM (inactive), the GI50 (UO-31) was > 100000 nM (inactive) and the GI50 (NCI-H23) was 20.1 µM (inactive) and 27.2 µM (inactive). The GI50 (BT-549) was 18.5 µM (inactive) and 22 µM (inactive), the GI50 (LOX IMVI) was 16.5 µM (inactive) and 11.4 µM (inactive) and the GI50 (UACC-62) was 18.5 µM (inactive) and > 10 µM (inactive). The GI50 (KM12) was 17 µM (inactive) and 18.2 µM (inactive), the GI50 (HCT-116) was 6.5 µM (inactive) and 7.45 µM (inactive) and the GI50 (786-0) was 22.8 µM (inactive) and 20.7 µM (inactive). For the same compound, the GI50 (HT-29) was 13.6 µM (inactive) and 13.4 µM (inactive), the GI50 (K562) was 9.95 µM (inactive) and 12.6 µM (inactive) and the GI50 (DU-145) was 65500 nM (inactive). The GI50 (MDA-MB-231) was 15.6 µM (inactive) and 16.6 µM (inactive), the GI50 (U-251) was 15.9 µM (inactive) and 8.57 µM (inactive) and the GI50 (SNB-19) was 30 µM (inactive) and 17.4 µM (inactive). For the same compound, the GI50 (HCT-15) was greater than 100000 nM, the GI50 (MOLT-4) was 6.85 µM (inactive) and 6.15 µM (inactive) and the GI50 (SF-539) was > 42200 nM (inactive). The GI50 (MDA-N) was 12.1 µM (inactive) and 14.8 µM (inactive), the GI50 (NCI-H522) was > 10 µM (inactive) and 13.8 µM (inactive) and the GI50 (SW-620) was 11.5 µM (inactive) and 8.65 µM (inactive). For the same compound, the GI50 (CAKI-1) was 32.5 µM (inactive) and > 64 µM (inactive), the GI50 (Hs-578T) was 25 µM (inactive) and 15.8 µM (inactive) and the GI50 (IGROV-1) was 22.3 µM (inactive) and 23.1 µM (inactive). The GI50 (HOP-92) was 24.9 µM (inactive) and 30.5 µM (inactive), the GI50 (OVCAR-4) was 17.9 µM (inactive) and 20.6 µM (inactive) and the GI50 (UACC-257) was > 100000 nM (inactive). For the same compound, the GI50 (SF-268) was 17.5 µM (inactive) and 22.9 µM (inactive), the GI50 (SK-OV-3) was 18.5 µM (inactive) and 27.7 µM (inactive) and the GI50 (MCF7) was 10.7 µM (inactive) and 16.1 µM (inactive).
